# Source: PMC11480993, “Combining Data-Driven and Structure-Based Approaches in Designing Dual PARP1-BRD4 Inhibitors for Breast Cancer Treatment” (Journal of Chemical Information and Modeling, 2024)
# Like-named read-outs stand apart in the source and are kept apart here.
# Tests used:
# BRD2 = BRD2 (Homo sapiens, UniProt P25440); test: BRD TR-FRET assay, BRD2; type: binding
# Procedure: (§1) The assay was performed by TR-FRET technology using a BRD and its corresponding ligand (BET). The TR-FRET signal from the assay is correlated with the amount of ligand binding to the bromodomain. All of the binding reactions were conducted at room temperature. The 20 μL reaction mixture in Assay Buffer contains either bromodomains, BET Ligand, and the indicated amount of inhibitor. For the negative control (blank), 5 μL of the assay buffer was added instead of the BET ligand. The reaction mixture was incubated for 120 min. After the incubation with the ligand, the TR-FRET signal was measured using a Tecan Infinite M1000 plate reader.
# MCF-7 cells [1] = test: Cell apoptosis detection (Annexin V-FITC/PI flow cytometry); type: cell-based; settings: 2 μM, MCF-7, dose-dependent
# Procedure: Cell apoptosis was assessed using the Annexin V-FITC/PI apoptosis detection kit. Following a 24 h treatment, cells were harvested and rinsed with PBS. Subsequently, the gathered cells were stained in accordance with the manufacturer’s guidelines and analyzed using BD FACSCelesta flow cytometry (New York, USA). FlowJo_V10 software was employed for data analysis.
# BRD4 = BRD4 (Homo sapiens, UniProt O60885); test: BRD TR-FRET assay, BRD4; type: binding
# Procedure: as §1
# Bcl-2 = test: Western blot, Bcl-2 in MCF-7 cells; type: cell-based; settings: MCF-7, 48 h, dose-dependent
# Procedure: (§2) Following a 48 h treatment, cellular proteins were extracted using RIPA cell lysis buffer containing protease and phosphatase inhibitor cocktail. The protein concentration was assessed by using a BCA assay. Subsequently, equal amounts of these proteins were loaded onto an SDS-PAGE gel and transferred onto a PVDF membrane. The protein-loaded membrane was then blocked using a commercial blocking solution (Beyotime, China) and sequentially incubated with primary and secondary antibodies. Protein bands were visualized using an ECL chemiluminescence kit and quantified using ImageJ software.
# [2] = tested on: HEK293T (human embryonic kidney cell); test: Cytotoxicity against non-tumor cells, HEK293T; type: cell-based; settings: HEK-293T, 96 h, 4-day treatment
# Excerpt: To further establish HF4’s advantage, we employed a web-based in silico cytotoxicity prediction tool (https://www.way2drug.com/clc-pred/index.php), encompassing the prediction against 391 tumor and 47 normal human cell lines,[47] to predict the cytotoxicity of HF4 against nontumor cell lines. […] The absence of nontumor cell lines among the top-ranked ones indicates a limited impact on normal cell line. When threshold of ≥0.15 was applied, among 50 predictions, only a single normal cell line (HEK293) was present in the list, with a predicted probability value below 0.2. We further reinforced the safety profile of HF4 by conducting experimental safety assessments on two normal cell lines. […] In summary, we conducted both computational safety predictions and experimental evaluations on normal cell lines to strengthen the assurance of HF4’s safety profile.
# Cytotoxicity of HF4 against non-tumor cells
# Figure S6. Cytotoxicity of HF4 against non-tumor cells during a 4-day treatment.
# (1 picture or pasted object on this page, not shown here)
# BRD4 BD1 = BRD4 BD1 (Homo sapiens, UniProt O60885); test: BRD TR-FRET assay, BRD4 BD1; type: binding
# Procedure: as §1
# PARP1 = test: Western blot, PARP1 expression in MCF-7 cells; type: cell-based; settings: MCF-7, 48 h treatment
# Procedure: as §2
# γH2AX = test: Western blot, γH2AX in MCF-7 cells; type: cell-based; settings: MCF-7, 48 h
# Procedure: as §2
# BRD4 BD2 = BRD4 BD2 (Homo sapiens, UniProt O60885); test: BRD TR-FRET assay, BRD4 BD2; type: binding
# Procedure: as §1
# E2F2 = test: Western blot, E2F2 in MCF-7 cells; type: cell-based; settings: MCF-7, 48 h
# Procedure: as §2
# Caspase 3 = test: Western blot, Caspase 3 in MCF-7 cells; type: cell-based; settings: MCF-7, 48 h, dose-dependent
# Procedure: as §2
# MCF-7 cells [3] = test: Cell viability (MTT), MCF-7; type: cell-based; settings: Homo sapiens, MCF7, 96 h; 4-day treatment, wild-type BRCA
# Procedure: MDA-MB-231, MDA-MB-436, and MCF-7 cells were seeded into 96-well plates with the number of 5 × 10^3 in each cell and allowed to incubate for 24 h. Subsequently, various concentrations of the test compounds (ranging from 100 to 0.78 μM with twice gradient dilution) were introduced. After 4 days of incubation, MTT solution was applied, and the cells were incubated for an additional 4 h. Following the removal of the supernatant, the violet crystals were dissolved in 200 μL of DMSO, and the absorbance was measured at 570 nm.
# BRD2, sequence (P25440 whole entry): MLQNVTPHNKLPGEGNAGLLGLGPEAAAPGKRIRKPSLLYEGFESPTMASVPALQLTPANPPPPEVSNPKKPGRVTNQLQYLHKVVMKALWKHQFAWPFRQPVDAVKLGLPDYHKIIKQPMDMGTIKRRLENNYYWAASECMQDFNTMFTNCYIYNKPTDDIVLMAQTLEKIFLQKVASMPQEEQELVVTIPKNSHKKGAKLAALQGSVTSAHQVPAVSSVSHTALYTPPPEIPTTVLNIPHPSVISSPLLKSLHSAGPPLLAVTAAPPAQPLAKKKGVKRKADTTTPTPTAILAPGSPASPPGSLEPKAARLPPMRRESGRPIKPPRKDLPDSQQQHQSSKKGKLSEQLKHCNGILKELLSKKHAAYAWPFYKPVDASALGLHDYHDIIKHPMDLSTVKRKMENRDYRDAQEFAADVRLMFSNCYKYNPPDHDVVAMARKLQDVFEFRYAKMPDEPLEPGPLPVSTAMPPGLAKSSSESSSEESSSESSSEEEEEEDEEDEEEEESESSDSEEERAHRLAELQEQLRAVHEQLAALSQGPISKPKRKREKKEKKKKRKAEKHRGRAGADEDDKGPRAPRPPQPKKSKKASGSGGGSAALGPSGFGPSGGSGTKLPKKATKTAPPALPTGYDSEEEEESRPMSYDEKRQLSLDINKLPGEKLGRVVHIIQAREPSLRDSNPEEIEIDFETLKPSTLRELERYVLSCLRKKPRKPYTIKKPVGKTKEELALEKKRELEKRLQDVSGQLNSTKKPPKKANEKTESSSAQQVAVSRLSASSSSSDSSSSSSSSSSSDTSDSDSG
compound,measurement,setting,value
"CCc1cc2cc(NS(=O)(=O)c3ccc(F)c(C)c3)ccc2[nH]c1=O [HF4, N-(3-ethyl-2-oxo-1,2-dihydroquinolin-6-yl)-4-fluoro-3-methylbenzenesulfonamide]",IC50,BRD2,6.83 ± 2.2 µM
same,apoptotic cells,MCF-7 cells [1],substantial increase in apoptotic cells
same,IC50,BRD4,1.21 ± 0.324 µM
same,ligand efficiency index against BRD4,"BRD4; pIC50 divided by HAC, HAC = 25",0.24
same,IC50,BRD4; value of the text,1.2 µM
same,reduction in capacity to inhibit BRD4 relative to PFI-1,BRD4; vs PFI-1,around 5 fold
same,Bcl-2 expression,Bcl-2,significantly downregulated
same,IC50,[2],21.5 ± 7.4 µM
same,IC50,BRD4 BD1,0.204 ± 0.068 µM
same,selectivity BRD4 BD1 over BRD4 BD2,BRD4 BD1; IC50 BD1 vs BD2,four times more potent
same,PARP1 expression,PARP1,limited effect
same,levels of γH2AX,γH2AX,dose-dependent upregulation
same,IC50,BRD4 BD2,0.801 ± 0.238 µM
same,E2F2 expression,E2F2,suppressed
same,Caspase 3 expression,Caspase 3,significantly downregulated
same,IC50,MCF-7 cells [3],2.1 µM
